For data set [1], the system named is Pseudomonas aeruginosa PAO 1. The data set can be described thus: In vitro antibacterial activity (minimum inhibitory concentration). It is filed as cell-based. The following applies: 37° C.; for Minimum inhibitory concentration: 20 hours, hydrochloride monohydrate. The protocol:
(§1) The in vitro antimicrobial activity of a typical compound in accordance with the present invention (hereinafter referred to as the present compound) was evaluated in terms of minimum inhibitory concentrations for various Gram-positive and Gram-negative bacteria. The Gram-positive bacteria used as test microorganisms included Bacillus subtilis, Staphylococcus aureus, Staphylococcus epidermidis and Streptococcus pyogenes, and the Gram-negative bacteria used as test microorganisms included Escherichia coli, Enterobacter cloacae, Klebsiella pneumoniae, Proteus vulgaris, Pseudomonas aeruginosa, Serratia marcescens, Salmonella enteritidis and Morganella morganii. The minimum inhibitory concentrations (for the test microorganisms cultured at 37° C. for 20 hours) were determined according to the standard method prescribed by the Japanese Chemotherapeutic Society (Journal of the Japanese Chemotherapeutic Society, Vol. 29, No. 1, p. 76, 1981). As the present compound, there was used (+)-9-fluoro-5-methyl-8-(4-methyl-1-piperazinyl)-6,7-dihydro-1,7-dioxo1H,5H-benzo[ij]quinolizine-2-carboxylic acid hydrochloride monohydrate which had been prepared in Example 1 described later. For purposes of comparison, control compounds were evaluated in the same manner as described above. These control compounds comprised the optically active (-)-isomer of the aforesaid compound (which had been prepared in Reference Example described later) and the racemate thereof.

The test system of data set [2] is Staphylococcus aureus FDA 209P JC-1. The description is as above. It is filed as cell-based. The conditions noted are these: 37° C.; for Minimum inhibitory concentration: 20 hours, hydrochloride monohydrate. Here is the method: as §1
For data set [3], the system named is Streptococcus pyogenes ATCC 19615. Described as above. It is filed as cell-based. The following applies: 37° C.; for Minimum inhibitory concentration: 20 hours, hydrochloride monohydrate. The protocol: as §1
The subject of data set [4] is Bacillus subtilis ATCC 6633. Described as above. It is filed as cell-based. The following applies: 37° C.; for Minimum inhibitory concentration: 20 hours, hydrochloride monohydrate. Here is the method:
as §1

The subject of data set [5] is Serratia marcescens IAM 1184. Described as above. It is filed as cell-based. The conditions noted are these: 37° C.; for Minimum inhibitory concentration: 20 hours, hydrochloride monohydrate. Here is the method: as §1
Data set [6] concerns Escherichia coli NIHJ JC-2. The data set is described as above. It is filed as cell-based. The conditions noted are these: 37° C.; for Minimum inhibitory concentration: 20 hours, hydrochloride monohydrate. The protocol: as §1
The test system of data set [7] is Klebsiella pneumoniae PCI 602. The data set is described as above. The conditions noted are these: 37° C.; for Minimum inhibitory concentration: 20 hours, hydrochloride monohydrate. The data set is classed as cell-based. The protocol: as §1
Data set [8] concerns Staphylococcus epidermidis IAM 1296. Described as above. The data set is classed as cell-based. The following applies: 37° C.; for Minimum inhibitory concentration: 20 hours, hydrochloride monohydrate. The protocol: as §1
For data set [9], the system named is Morganella morganii IFO 3848. Described as above. It is filed as cell-based. The following applies: 37° C.; for Minimum inhibitory concentration: 20 hours, hydrochloride monohydrate. Here is the method:
as §1

Another data set relates to Enterobacter cloacae 963. The data set is described as above. It is filed as cell-based. The conditions noted are these: 37° C.; for Minimum inhibitory concentration: 20 hours, hydrochloride monohydrate. The protocol:
as §1

Data set [10] deals with Salmonella enteritidis G 14. The description is as above. The data set is classed as cell-based. The conditions noted are these: 37° C.; for Minimum inhibitory concentration: 20 hours, hydrochloride monohydrate. The protocol:
as §1

In data set [11] the test system is Proteus vulgaris ATCC 13315. The data set is described as above. The data set is classed as cell-based. The conditions noted are these: 37° C.; for Minimum inhibitory concentration: 20 hours, hydrochloride monohydrate. Here is the method: as §1
The nature of the next data set: Solubility in water. It is filed as physicochemical. Here is the method: The solubilities of the present compound (which had been prepared in Example 1) and its racemate in water were determined.
For data set [12], the system named is various Gram-positive and Gram-negative bacteria. The data set can be described thus: In vitro antibacterial activity over all test microorganisms (comparison of potency). The following applies: versus racemate. The data set is classed as cell-based. Here is the method:
as §1, with “These control compounds comprised the optically active (-)-isomer of the aforesaid compound (which had been prepared in Reference Example described later) and the racemate thereof.” left out

Three compounds from US4946844A, “Optically active benzoquinolizine compounds, process for preparing same, and antibacterial preparation containing same as active ingredient” (Tokyo Tanabe Co., Ltd., priority 1987, dated 1990) can be followed below.

With `CC1CC(=O)c2c(N3CCN(C)CC3)c(F)cc3c(=O)c(C(=O)O)cn1c23.Cl.O` (racemic) [Racemate, (±)-9-fluoro-5-methyl-8-(4-methyl-1-piperazinyl)-6,7-dihydro-1,7-dioxo-1H,5H-benzo[ij]quinolizine-2-carboxylic acid hydrochloride monohydrate], the MIC was 1.56 µg/mL in [1] (Pseudomonas aeruginosa, PAO1, 20 h); 0.39 µg/mL in data set [2] (Staphylococcus aureus, FDA209P, 20 h); 6.25 µg/mL in data set [3] (Streptococcus pyogenes, ATCC19615, 20 h); 0.1 µg/mL in [4] (Bacillus subtilis, ATCC6633, 20 h); 1.56 µg/mL in [5] (Serratia marcescens, IAM1184, 20 h); 0.2 µg/mL in data set [6] (Escherichia coli, NIHJJC2, 20 h). For the same compound, the MIC was 0.1 µg/mL in data set [7] (Klebsiella pneumoniae, PCI602, 20 h); 1.56 µg/mL in data set [8] (Staphylococcus epidermidis, IAM1296, 20 h); 0.1 µg/mL in data set [9] (Morganella morganii, IFO3848, 20 h); 0.2 µg/mL against Enterobacter cloacae 963 (Enterobacter cloacae, 963, 20 h); 0.78 µg/mL in [10] (Salmonella enterica, ENTERITIDIS, 20 h); 0.2 µg/mL in [11] (Proteus vulgaris, ATCC13315, 20 h). For the same compound, the solubility in the data set “Solubility in water” is ~7 mg/mL.
Consider `CC1CC(=O)c2c(N3CCN(C)CC3)c(F)cc3c(=O)c(C(=O)O)cn1c23.Cl.O` (single isomer, unassigned; (+)) [Present compound, (+)-9-fluoro-5-methyl-8-(4-methyl-1-piperazinyl)-6,7-dihydro-1,7-dioxo-1H,5H-benzo[ij]quinolizine-2-carboxylic acid hydrochloride monohydrate], for which the Minimum inhibitory concentration in data set [1] is 0.78 µg/mL; in [2], 0.20 µg/mL; in [3] it was 0.78 µg/mL; in data set [4], 0.05 µg/mL; in [5], 0.39 µg/mL; in [6], 0.10 µg/mL. Further, the Minimum inhibitory concentration is ≤ 0.025 µg/mL in [7]; 0.39 µg/mL in data set [8]; ≤ 0.025 µg/mL in data set [9]; 0.10 µg/mL in the data set with Enterobacter cloacae 963; 0.20 µg/mL in data set [10]; 0.10 µg/mL in [11]. In addition, in data set [12], the “antibacterial activity relative to the racemate (compound [I])” value is recorded as “about twice as potent”. Moreover, in the data set “Solubility in water”, the solubility was ~180 mg/mL. In the data set “Solubility in water” (versus racemate), the “solubility relative to the racemate” value is on record as “about 25 times”.
For `CC1CC(=O)c2c(N3CCN(C)CC3)c(F)cc3c(=O)c(C(=O)O)cn1c23.Cl.O` (single isomer, unassigned; (-)) [(-)-isomer, (-)-9-fluoro-5-methyl-8-(4-methyl-1-piperazinyl)-6,7-dihydro-1,7-dioxo-1H,5H-benzo[ij]quinolizine-2-carboxylic acid hydrochloride monohydrate], the Minimum inhibitory concentration was 12.5 µg/mL in data set [1]; 25 µg/mL in data set [2]; > 100 µg/mL in [3]; 1.56 µg/mL in data set [4]; 3.13 µg/mL in data set [5]; 3.13 µg/mL in [6]. In addition, the Minimum inhibitory concentration amounted to 0.78 µg/mL in data set [7]; 50 µg/mL in data set [8]; 0.78 µg/mL in data set [9]; 3.13 µg/mL in the data set on Enterobacter cloacae 963; 1.56 µg/mL in data set [10]; 0.78 µg/mL in data set [11].
